Measured values from ChEMBL document CHEMBL5029168, “Discovery of novel ID2 antagonists from pharmacophore-based virtual screening as potential therapeutics for glioma” (Bioorg Med Chem, 2021).

What was measured:
[1] = tested on: U-87 MG; test: Cytotoxicity against human U87 cells assessed as reduction in cell viability incubated for 24 hrs by CCK8 assay; format: functional, cell-based, U-87MG ATCC
[2] = tested on: Hs 683; test: Cytotoxicity against human Hs 683 cells assessed as reduction in cell viability incubated for 24 hrs by CCK8 assay; format: functional, cell-based; conditions: Hs 683, 24 h
[3] = tested on: GL261; test: Cytotoxicity against mouse GL261 cells assessed as reduction in cell viability incubated for 24 hrs by CCK8 assay; format: functional, cell-based; conditions: GL261, 24 h

SMILES | IC50 [1] [µM] | IC50 [2] [µM] | IC50 [3] [µM]
CCN(C(=O)[C@H](Cc1ccccc1)NS(=O)(=O)c1cccc2nsnc12)c1ccccc1 | 66.3 | 69.8 | 60.6
COc1ccc(NS(=O)(=O)c2ccc(NC(=S)NC(=O)C(C)C)cc2)cc1 | 56.7 | 53.2 | 61.3
COc1ccc(Cn2c(SCC(=O)n3c4c(c5ccccc53)CCCC4)nc3ccccc32)cc1 | 88.5 | 91.4 | 90.4
CC1Oc2ccc(S(=O)(=O)Nc3ccc(CCC(=O)O)cc3)cc2NC1=O (configuration not stated) | 47.4 | 41.5 | 52.5
